Measurements from US20230382925A1, “MODULATORS OF CYSTIC FIBROSIS TRANSMEMBRANE CONDUCTANCE REGULATOR” (VERTEX PHARMACEUTICALS INCORPORATED, priority 2020, published 2023).

Target: CFTR (Homo sapiens, UniProt P13569)
Test: Membrane Potential Dye, Enteroid Assay A
Assay type: cell-based
Settings: for EC50: read-out: Ent. A EC50
Protocol: Base medium (ADF+++) consisted of Advanced […], 2 mM Glutamax, 10 mM HEPES, 1 μg/mL penicillin/streptomycin.
Intestinal enteroid maintenance medium (IEMMN) consisted of ADF+++, 1× B27 supplement, 1× N2 supplement, 1.25 mM N-acetyl cysteine, 10 mM Nicotinamide, 50 ng/mL hEGF, 10 nM Gastrin, 1 μg/mL hR-spondin-1, 100 ng/mL hNoggin, TGF-b type 1 inhibitor A-83-01, 100 μg/mL Primocin, 10 μM P38 MAPK inhibitor SB202190.
Bath 1 Buffer consisted of 1 mM MgCl2, 160 mM NaCl, 4.5 mM KCl, 10 mM HEPES, 10 mM Glucose, 2 mM CaCl2).
Chloride Free Buffer consisted of 1 mM Magnesium Gluconate, 2 mM Calcium Gluconate, 4.5 mM Potassium Gluconate, 160 mM Sodium Gluconate, 10 mM HEPES, 10 mM Glucose.
Bath 1 Dye Solution consisted of Bath 1 Buffer, 0.04% Pluronic F127, 20 μM Methyl Oxonol, 30 μM CaCCinh-A01, 30 μM Chicago Sky Blue.
Chloride Free Dye Solution consisted of Chloride Free Buffer, 0.04% Pluronic F127, 20 μM Methyl Oxonol, 30 μM CaCCinh-A01, 30 μM Chicago Sky Blue.
Chloride Free Dye Stimulation Solution consisted of Chloride Free Dye Solution, 10 μM forskolin, 100 μM IBMX, and 300 nM Compound III.
Human intestinal epithelial enteroid cells were obtained from the Hubrecht Institute for Developmental Biology and Stem Cell Research, Utrecht, The Netherlands and expanded in T-Flasks as previously described (Dekkers J F, Wiegerinck C L, de Jonge H R, Bronsveld I, Janssens H M, de Winter-de Groot K M, Brandsma A M, de Jong N W M, Bijvelds M J C, Scholte B J, Nieuwenhuis E E S, van den Brink S, Clevers H, van der Ent C K, Middendorp S and M Beekman J M. A functional CFTR assay using primary cystic fibrosis intestinal organoids. Nat Med. 2013 July; 19(7):939-45.).
3. Enteroid Cell Harvesting and Seeding
Cells were recovered in cell recovery solution, collected by centrifugation at 650 rpm for 5 min at 4° C., resuspended in TrypLE and incubated for 5 min at 37° C. Cells were then collected by centrifugation at 650 rpm for 5 min at 4° C. and resuspended in IEMM containing 10 μM ROCK inhibitor (RI). The cell suspension was passed through a 40 μm cell strainer and resuspended at 1×10^6 cells/mL in IEMM containing 10 μM RI. Cells were seeded at 5000 cells/well into multi-well plates and incubated for overnight at 37° C., 95% humidity and 5% CO2 prior to assay.
4. Membrane Potential Dye, Enteroid Assay A
Enteroid cells were incubated with test compound in IEMM for 18-24 hours at 37° C., 95% humidity and 5% CO2. […] Briefly, cells were washed 5 times in Bath 1 Buffer. Bath 1 Dye Solution was added, and the cells were incubated for 25 min at room temperature. Following dye incubation, cells were washed 3 times in Chloride Free Dye Solution. Chloride transport was initiated by addition of Chloride Free Dye Stimulation Solution and the fluorescence signal was read for 15 min. […] Chloride transport was then expressed as a percentage of the chloride transport following treatment with 3 μM N-[(6-amino-2-pyridyl)sulfonyl]-6-(3-fluoro-5-isobutoxy-phenyl)-2-[(4S)-2,2,4-trimethylpyrrolidin-1-yl]pyridine-3-carboxamide, 3 μM (R)-1-(2,2-difluorobenzo[d][1,3]dioxol-5-yl)-N-(1-(2,3-dihydroxypropyl)-6-fluoro-2-(1-hydroxy-2-methylpropan-2-yl)-1H-indol-5-yl)cyclopropanecarboxamide and 300 nM acute N-[2,4-bis(1,1-dimethylethyl)-5-hydroxyphenyl]-1,4-dihydro-4-oxoquinoline-3-carboxamide triple combination control (% Activity).

Sequence of CFTR (P13569 with tags, fused parts or gaps DEL508-508): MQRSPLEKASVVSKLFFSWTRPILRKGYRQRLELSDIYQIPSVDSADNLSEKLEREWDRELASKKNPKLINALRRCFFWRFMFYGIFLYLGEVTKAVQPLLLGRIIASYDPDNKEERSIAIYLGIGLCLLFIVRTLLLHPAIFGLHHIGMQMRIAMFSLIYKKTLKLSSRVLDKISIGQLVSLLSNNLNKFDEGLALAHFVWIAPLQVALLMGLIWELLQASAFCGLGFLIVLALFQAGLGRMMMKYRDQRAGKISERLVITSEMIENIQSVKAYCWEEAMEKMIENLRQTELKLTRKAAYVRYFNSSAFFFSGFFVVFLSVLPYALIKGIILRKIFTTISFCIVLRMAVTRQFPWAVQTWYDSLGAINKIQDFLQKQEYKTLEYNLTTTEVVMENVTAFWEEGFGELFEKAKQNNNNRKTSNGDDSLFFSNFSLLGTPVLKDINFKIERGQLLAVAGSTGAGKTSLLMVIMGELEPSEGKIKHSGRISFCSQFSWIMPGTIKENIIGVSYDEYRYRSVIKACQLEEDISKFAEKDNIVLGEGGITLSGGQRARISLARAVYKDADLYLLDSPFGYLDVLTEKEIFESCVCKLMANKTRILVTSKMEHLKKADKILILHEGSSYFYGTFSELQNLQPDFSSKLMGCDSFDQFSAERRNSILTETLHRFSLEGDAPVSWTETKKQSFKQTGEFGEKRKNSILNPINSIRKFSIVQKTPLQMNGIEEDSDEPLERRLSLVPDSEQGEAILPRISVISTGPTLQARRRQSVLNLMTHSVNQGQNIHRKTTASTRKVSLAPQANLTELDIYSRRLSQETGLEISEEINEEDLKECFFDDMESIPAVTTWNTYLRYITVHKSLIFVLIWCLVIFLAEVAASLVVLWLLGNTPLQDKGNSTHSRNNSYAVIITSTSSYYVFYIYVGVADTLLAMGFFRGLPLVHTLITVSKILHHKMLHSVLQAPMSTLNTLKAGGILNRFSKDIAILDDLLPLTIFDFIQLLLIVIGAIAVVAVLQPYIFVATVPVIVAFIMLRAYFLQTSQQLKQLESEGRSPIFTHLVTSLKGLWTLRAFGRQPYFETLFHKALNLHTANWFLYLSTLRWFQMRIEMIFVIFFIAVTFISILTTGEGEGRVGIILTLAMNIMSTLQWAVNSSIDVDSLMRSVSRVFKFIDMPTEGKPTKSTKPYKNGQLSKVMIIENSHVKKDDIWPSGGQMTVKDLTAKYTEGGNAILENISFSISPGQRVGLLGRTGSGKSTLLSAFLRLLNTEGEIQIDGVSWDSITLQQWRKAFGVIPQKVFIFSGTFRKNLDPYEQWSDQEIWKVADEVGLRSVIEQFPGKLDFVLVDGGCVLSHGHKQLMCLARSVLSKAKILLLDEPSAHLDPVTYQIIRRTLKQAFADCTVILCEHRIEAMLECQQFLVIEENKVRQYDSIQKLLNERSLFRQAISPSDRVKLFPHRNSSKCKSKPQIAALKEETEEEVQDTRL

Row | SMILES | Ent. A Max Activity (%) | EC50
1 | CC(C)C[C@@H]1COc2cc(-c3ccccc3C(C)C)nc(n2)NS(=O)(=O)c2cccc(c2)C(=O)N1C1CC2(CCN(C(=O)OC(C)(C)C)CC2)C1 [Compound 12, tert-Butyl 2-[(11R)-11-isobutyl-6-(2-isopropylphenyl)-2,2,13-trioxo-9-oxa-2λ^6-thia-3,5,12,19-tetrazatricyclo[12.3.1.14,8]nonadeca-1(18),4,6,8(19),14,16-hexaen-12-yl]-7-azaspiro[3.5]nonane-7-carboxylate] | ++ (++ is 30-60%) | < 1 µM
2 | Cc1cccc(C)c1-c1cc2nc(n1)NS(=O)(=O)c1cccc(c1)C(=O)N(C1CC3(CCN(C(C)C)CC3)C1)[C@H](CC(C)C)CO2 [Compound 17, (11R)-6-(2,6-Dimethylphenyl)-11-isobutyl-12-(7-isopropyl-7-azaspiro[3.5]nonan-2-yl)-2,2-dioxo-9-oxa-2λ^6-thia-3,5,12,19-tetrazatricyclo[12.3.1.14,8]nonadeca-1(18),4(19),5,7,14,16-hexaen-13-one] | +++ (+++ is >60%) | < 1 µM
3 | Cc1cccc(C)c1-c1cc2nc(n1)NS(=O)(=O)c1cccc(c1)C(=O)N(C1CCC1)[C@H](CC(C)C)CO2 [Compound 27, (11R)-12-cyclobutyl-6-(2,6-dimethylphenyl)-11-isobutyl-2,2-dioxo-9-oxa-2λ^6-thia-3,5,12,19-tetrazatricyclo[12.3.1.14,8]nonadeca-1(18),4(19),5,7,14,16-hexaen-13-one] | ++ (++ is 30-60%) | < 1 µM
4 | Cc1cccc(C)c1-c1cc2nc(n1)NS(=O)(=O)c1cccc(c1)C(=O)N(C1CC3(COC3)C1)[C@H](CC(C)C)CO2 [Compound 29, (11R)-6-(2,6-Dimethylphenyl)-11-isobutyl-12-(2-oxaspiro[3.3]heptan-6-yl)-2,2-dioxo-9-oxa-2λ^6-thia-3,5,12,19-tetrazatricyclo[12.3.1.14,8]nonadeca-1(18),4(19),5,7,14,16-hexaen-13-one] | +++ (+++ is >60%) | < 1 µM
5 | Cc1cccc(C)c1-c1cc2nc(n1)NS(=O)(=O)c1cccc(c1)C(=O)N(C1CCCC1)[C@H](CC(C)C)CO2 [Compound 30, (11R)-12-Cyclopentyl-6-(2,6-dimethylphenyl)-11-isobutyl-2,2-dioxo-9-oxa-2λ^6-thia-3,5,12,19-tetrazatricyclo[12.3.1.14,8]nonadeca-1(18),4(19),5,7,14,16-hexaen-13-one] | +++ (+++ is >60%) | < 1 µM
6 | Cc1cccc(C)c1-c1cc2nc(n1)NS(=O)(=O)c1cccc(c1)C(=O)N(C1CC(C(=O)O)C1)[C@H](CC(C)C)CO2 (stereo partly drawn) [Compound 35, 3-[(11R)-6-(2,6-dimethylphenyl)-11-isobutyl-2,2,13-trioxo-9-oxa-2λ^6-thia-3,5,12,19-tetrazatricyclo[12.3.1.14,8]nonadeca-1(18),4(19),5,7,14,16-hexaen-12-yl]cyclobutanecarboxylic acid] | +++ (+++ is >60%) | 3 to 30 µM
7 | Cc1cccc(C)c1-c1cc2nc(n1)NS(=O)(=O)c1cccc(c1)C(=O)N(C1CC(C(=O)N3CCN(C)CC3)C1)[C@H](CC(C)C)CO2 (stereo partly drawn) [Compound 36, (11R)-6-(2,6-dimethylphenyl)-11-isobutyl-12-[3-(4-methylpiperazine-1-carbonyl)cyclobutyl]-2,2-dioxo-9-oxa-2λ^6-thia-3,5,12,19-tetrazatricyclo[12.3.1.14,8]nonadeca-1(18),4(19),5,7,14,16-hexaen-13-one] | +++ (+++ is >60%) | < 1 µM
8 | COC(=O)N1CCC2(CC1)CC(N1C(=O)c3cccc(c3)S(=O)(=O)Nc3nc(cc(-c4c(C)cccc4C)n3)OC[C@@H]1CC(C)C)C2 [Compound 113, Methyl 2-[(11S)-6-(2,6-dimethylphenyl)-11-isobutyl-2,2,13-trioxo-9-oxa-2λ^6-thia-3,5,12,19-tetrazatricyclo[12.3.1.14,8]nonadeca-1(18),4(19),5,7,14,16-hexaen-12-yl]-7-azaspiro[3.5]nonane-7-carboxylate] | ++ (++ is 30-60%) | < 1 µM
9 | Cc1cccc(C)c1-c1cc2nc(n1)NS(=O)(=O)c1cccc(c1)C(=O)N(C1CC3(CCN(C)CC3)C1)C[C@@H](C)O2 [Compound 179, (10R)-6-(2,6-Dimethylphenyl)-10-methyl-12-(7-methyl-7-azaspiro[3.5]nonan-2-yl)-2,2-dioxo-9-oxa-2λ^6-thia-3,5,12,19-tetrazatricyclo[12.3.1.14,8]nonadeca-1(18),4(19),5,7,14,16-hexaen-13-one] | +++ (+++ is >60%) | 1 to 3 µM
10 | COC(=O)N1CCC2(CC1)CC(N1C(=O)c3cccc(c3)S(=O)(=O)Nc3cc(cc(-c4c(C)cccc4C)n3)OC[C@H]1CC(C)C)C2 [Compound 196, Methyl 2-[(11R)-6-(2,6-dimethylphenyl)-11-isobutyl-2,2,13-trioxo-9-oxa-2λ^6-thia-3,5,12-triazatricyclo[12.3.1.14,8]nonadeca-1(18),4(19),5,7,14,16-hexaen-12-yl]-7-azaspiro[3.5]nonane-7-carboxylate] | +++ (+++ is >60%) | < 1 µM
11 | Cc1cccc(C)c1-c1cc2nc(n1)NS(=O)(=O)c1cccc(c1)C(=O)N(C1CC3(CC3)C1)C(CC(C)(C)C(F)(F)F)CO2 (stereo not drawn) [Compound 216] | +++ (+++ is >60%) | < 1 µM
12 | COC(=O)N1CCC2(CC1)CC(N1C[C@@H](C)Oc3cc(-c4c(C)cccc4C)nc(n3)NS(=O)(=O)c3cccc(c3)C1=O)C2 [Compound 312] | +++ (+++ is >60%) | < 1 µM
13 | Cc1cccc(C)c1-c1cc2nc(n1)NS(=O)(=O)c1cccc(c1)C(=O)N([C@H]1CC3(C[C@H](N(C)C)C3)C1)[C@H](CC(C)C)CO2 (stereo partly drawn) [Compound 314] | +++ (+++ is >60%) | < 1 µM
14 | COC(=O)N1CCCC2(CC(N3C(=O)c4cccc(c4)S(=O)(=O)Nc4nc(cc(-c5c(C)cccc5C)n4)OC[C@H]3CC(C)C)C2)C1 (stereo partly drawn) [Compound 324] | +++ (+++ is >60%) | < 1 µM
15 | COC(=O)N1CCC2(CC(N3C(=O)c4cccc(c4)S(=O)(=O)Nc4nc(cc(-c5c(C)cccc5C)n4)OC[C@H]3CC(C)C)C2)C1 (stereo partly drawn) [Compound 325] | +++ (+++ is >60%) | < 1 µM
16 | COC(=O)N1CCCC2(CC(N3C(=O)c4cccc(c4)S(=O)(=O)Nc4nc(cc(-c5c(C)cccc5C)n4)OC[C@H]3CC(C)C)C2)C1 (stereo partly drawn) [Compound 327] | +++ (+++ is >60%) | < 1 µM
17 | COC(=O)N1CCC2(CC(N3C(=O)c4cccc(c4)S(=O)(=O)Nc4nc(cc(-c5c(C)cccc5C)n4)OC[C@H]3CC(C)C)C2)C1 (stereo partly drawn) [Compound 328] | +++ (+++ is >60%) | < 1 µM
18 | Cc1cccc(C)c1-c1cc2nc(n1)NS(=O)(=O)c1cccc(c1)C(=O)N([C@H]1C[C@]3(CCN(C)C3)C1)[C@H](CC(C)C)CO2 [Compound 330] | +++ (+++ is >60%) | < 1 µM
19 | Cc1cccc(C)c1-c1cc2nc(n1)NS(=O)(=O)c1cccc(c1)C(=O)N([C@H]1C[C@]3(CCCCN3C)C1)[C@H](CC(C)C)CO2 [Compound 331] | +++ (+++ is >60%) | < 1 µM
20 | Cc1cccc(C)c1-c1cc2nc(n1)NS(=O)(=O)c1cccc(c1)C(=O)N([C@H]1C[C@]3(CCCN(C)C3)C1)[C@H](CC(C)C)CO2 [Compound 332] | +++ (+++ is >60%) | < 1 µM
21 | CC(=O)N1CC2(CC(N3C(=O)c4cccc(c4)S(=O)(=O)Nc4nc(cc(-c5c(C)cccc5C)n4)OC[C@H]3CC(C)C)C2)C1 [Compound 335] | ++ (++ is 30-60%) | < 1 µM
